Patent publication US20160220542A1, “SYNERGISTIC ACTIVITY OF MODULATORS OF THE NO METABOLISM AND OF NADPH OXIDASE IN THE SENSITISATION OF TUMOR CELLS” (Universitaetsklinikum Freiburg, priority 2010, published 2016)

Biological target: T1, NADPH oxidase (Rattus norvegicus, UniProt Q9WV87)
T1 construct: 12 500 208Fsrc3 cells (100 μl) received the stated concentrations of Cu SOD and 120 μM EUK-8; endogenous in cells; host or cells: 208Fsrc3 transformed rat fibroblasts
T1 sequence (Q9WV87 1-563): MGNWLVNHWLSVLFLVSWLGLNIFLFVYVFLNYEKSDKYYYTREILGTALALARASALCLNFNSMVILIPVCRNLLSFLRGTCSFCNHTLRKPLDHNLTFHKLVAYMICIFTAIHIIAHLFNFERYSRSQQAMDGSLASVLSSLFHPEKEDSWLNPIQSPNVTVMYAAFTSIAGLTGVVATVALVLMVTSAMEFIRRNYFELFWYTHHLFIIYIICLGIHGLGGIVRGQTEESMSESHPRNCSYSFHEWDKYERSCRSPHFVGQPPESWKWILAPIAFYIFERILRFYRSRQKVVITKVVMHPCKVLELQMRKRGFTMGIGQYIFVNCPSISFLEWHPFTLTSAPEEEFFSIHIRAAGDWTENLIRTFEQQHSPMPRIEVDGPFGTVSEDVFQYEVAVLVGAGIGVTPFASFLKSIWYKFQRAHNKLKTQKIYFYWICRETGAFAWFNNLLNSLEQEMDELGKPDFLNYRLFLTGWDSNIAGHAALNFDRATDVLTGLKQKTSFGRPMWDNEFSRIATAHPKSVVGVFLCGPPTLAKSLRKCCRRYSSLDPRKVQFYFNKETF
T1 sequence (Q62737 1-192 partner): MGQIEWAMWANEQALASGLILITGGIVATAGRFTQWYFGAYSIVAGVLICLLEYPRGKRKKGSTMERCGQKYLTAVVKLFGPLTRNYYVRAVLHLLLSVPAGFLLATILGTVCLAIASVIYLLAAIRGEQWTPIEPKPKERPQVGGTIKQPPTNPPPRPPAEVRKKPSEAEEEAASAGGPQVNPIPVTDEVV
Assay: superoxide anion concentration after inhibition of NADPH oxidase (Cu SOD bell curve shift)
Format: cell-based
Details: 208Fsrc3, 120 μM EUK-8, 5 hours
Method: 12 500 208Fsrc3 cells (100 μl) received the stated concentrations of Cu SOD and 120 μM EUK-8. In addition the stated concentrations of the NADPH oxidase inhibitor AEBSF (4-(2-Aminoethyl)-benzenesulfonyl fluoride) were added. Control preparations remained free of AEBSF. After 5 hours the percentages of apoptotic cells were determined in duplicate preparations.

NCCc1ccc(S(=O)(=O)F)cc1 [AEBSF, 4-(2-Aminoethyl)-benzenesulfonyl fluoride]
reduction in superoxide anion concentration on doubling of the inhibitor concentration: fourfold
